Experimental data taken from patent US11254717B2, “Antimicrobial peptide Sparamosin from Scylla paramamosain and application thereof” (priority 2018, dated 2022).
Converted amounts (≈) assume the structure as drawn. Ends that are not written are not given here. Peptide text beside a SMILES is read from it.

Key:
[1] = system: various Gram-positive bacteria and Gram-negative bacteria
[2] = system: normal mouse liver cell line (AML12 cell line); assay: Cytotoxicity, MTS-PMS assay; type: cell-based; conditions: normal cultured mouse hepatocytes
Description: (§1) The cytotoxicity effect of synthetic Sparamosin26-54 was evaluated using normal mouse liver cell line (AML12 cell line) and normal human liver cell line (L02 cell line).
(§2) (1) AML12 or L02 cells were harvested, and the cell concentration was adjusted to 10^5 cells/mL.
(§3) (2) 100 μL of AML12 or L02 cells were seeded in 96-wells and incubated at 37° C.
(§4) (3) Cells were treated with different concentrations of Sparamosin26-54 (0, 0.1, 1, 10, 100 μg/mL) for 24 h at 37° C.
(§5) (4) Cells were treated with 20 μL of MTS-PMS reagent for another 2 hours, and then the absorbance value of each well was measured at 492 nm (see FIG. 4).

[3] = system: normal human liver cell line (L02 cell line); assay: Cytotoxicity, MTS-PMS assay; type: cell-based; conditions: normal cultured human hepatocytes
Description: as §1, §2, §3, §4, §5

[4] = system: Corynebacterium glutamicum

Row | Compound | MBC: minimum bactericidal concentration (Pichia pastoris (GS115)) [µM] | MIC: minimum inhibitory concentration (Pichia pastoris (GS115)) [µM] | MBC: minimum bactericidal concentration (Escherichia coli) [µM] | MIC: minimum inhibitory concentration (Escherichia coli) [µM] | MBC: minimum bactericidal concentration (Staphylococcus aureus) [µM] | MIC: minimum inhibitory concentration (Staphylococcus aureus) [µM] | MBC: minimum bactericidal concentration (Bacillus cereus) [µM] | MIC: minimum inhibitory concentration (Bacillus cereus) [µM] | MBC: minimum bactericidal concentration (Cryptococcus neoformans) [µM] | MIC: minimum inhibitory concentration (Cryptococcus neoformans) [µM] | MBC: minimum bactericidal concentration (Pseudomonas fluorescens) [µM] | MIC: minimum inhibitory concentration (Pseudomonas fluorescens) [µM] | other results
1 | CSCC[C@H](NC(=O)[C@H](CS)NC(=O)[C@@H](NC(=O)[C@H](Cc1ccccc1)NC(=O)[C@H](CC(N)=O)NC(=O)[C@H](CC(C)C)NC(=O)[C@H](CCCNC(=N)N)NC(=O)[C@H](CS)NC(=O)[C@H](CCCNC(=N)N)NC(=O)CNC(=O)[C@H](CC(C)C)NC(=O)[C@H](Cc1ccccc1)NC(=O)[C@H](CC(=O)O)NC(=O)[C@H](CCCNC(=N)N)NC(=O)[C@H](CCCCN)NC(=O)[C@H](Cc1ccc(O)cc1)NC(=O)[C@H](CS)NC(=O)[C@H](CCCCN)NC(=O)[C@H](CCCCN)NC(=O)[C@H](CCCNC(=N)N)NC(=O)[C@H](CS)NC(=O)[C@@H]1CCCN1C(=O)[C@H](CC(N)=O)NC(=O)[C@@H]1CCCN1C(=O)CNC(=O)[C@H](CC(C)C)NC(=O)CN)[C@@H](C)O)C(=O)N[C@@H](Cc1ccccc1)C(=O)NCC(=O)O [Sparamosin26-54] (H-GLGPNPCRKKCYKRDFLGRCRLNFTCMFG-OH; N-terminus and C-terminus assumed) | 3 (≈ 10.1 µg/mL) | 1.5 to 3 | 12 (≈ 40.6 µg/mL) | 6 to 12 | 12 (≈ 40.6 µg/mL) | 3 to 6 | 24 (≈ 81.2 µg/mL) | 6 to 12 | 12 (≈ 40.6 µg/mL) | 1.5 to 3 | 6 (≈ 20.3 µg/mL) | 3 to 6 | MIC value (various molds): 6 to 24 µM; MBC: minimum bactericidal concentration (Fusarium oxysporum): 12 µM (≈ 40.6 µg/mL); MBC: minimum bactericidal concentration (Aspergillus niger): 24 µM (≈ 81.2 µg/mL); MIC: minimum inhibitory concentration (Aspergillus niger): 6 to 12 µM; minimum inhibitory concentration (MIC) value [1]: 3 to 12 µM; MBC: minimum bactericidal concentration (Candida albicans): >48 µM; MIC: minimum inhibitory concentration (Candida albicans): >48 µM; cytotoxic effect [2]: no cytotoxic effect; cytotoxic effect [3]: no cytotoxic effect; MBC: minimum bactericidal concentration (Neurospora crasa): 48 µM (≈ 162 µg/mL); MBC: minimum bactericidal concentration (Aspergillus flavus): >48 µM; MIC: minimum inhibitory concentration (Aspergillus flavus): >48 µM; MBC: minimum bactericidal concentration (Aspergillus fumigatus): 24 µM (≈ 81.2 µg/mL); MIC: minimum inhibitory concentration (Aspergillus fumigatus): 12 to 24 µM; MBC: minimum bactericidal concentration (Aspergillus ochraceus): 48 µM (≈ 162 µg/mL); MIC: minimum inhibitory concentration (Aspergillus ochraceus): 3 to 6 µM; MBC: minimum bactericidal concentration [4]: 6 µM (≈ 20.3 µg/mL); MIC: minimum inhibitory concentration [4]: 1.5 to 3 µM; MBC: minimum bactericidal concentration (Pseudomonas aeruginosa): 12 µM (≈ 40.6 µg/mL); MIC: minimum inhibitory concentration (Pseudomonas aeruginosa): 6 to 12 µM
2 | APVPDPDSEQSNISEVLKVQHSIFSGLGPNPCRKKCYKRDFLGRCRLNFTCMFG (cysteines drawn unpaired) [Sparamosin] | 24 | 6 to 12 | 24 | 12 to 24 | 48 | 12 to 24 | >48 | 24 to 48 | >48 | >48 | 24 | 12 to 24 | –
